Tests used:
Assay type in all cases: in vivo
Aedes aegypti = test: twelve well tissue culture plate deposit test, knockdown (B23); conditions: 1 h, read-out: Aedes aegypti 1 hour % KD
Experimental: (§1) The individual wells of a twelve (12) well tissue culture plates were treated with 100 μl of an ethanol solution containing a test compound at a defined concentration. Once the deposits were dry, five non-blood fed adult female Aedes aegypti or Anopheles stephensi (between two to five day old) were added to each well, and sustained with a 10% sucrose solution in a cotton wool plug. Assessment of the knockdown after 1 hour was carried out. Where multiple replicates of a treatment have been undertaken, the mean of those replicates is reported.

Anopheles stephensi [1] = test: as above; conditions: 1 h, read-out: Anopheles stephensi 1 hour % KD
Experimental: as §1

Anopheles stephensi [2] = test: WHOPES tunnel test with Hemotek membrane feeding device (B11-B14)
Experimental: (§2) The following tests are based on the “WHOPES tunnel tests” (described at http://apps.who.int/iris/bitstream/10665/80270/1/9789241505277_eng.pdf)
(§3) For examples B11-B15 the WHOPES tunnel test procedure was followed, except that live guniea pig baits were replaced with a Hemotek membrane feeding device, filled with blood and kept constant at 37° C. to mimic a human host.
For examples B11-B14, the tunnel test was conducted with Anopheles stephensi;
(§4) All tests were done under standardised laboratory controlled conditions (27° C.+2° C. under subdued light). The tunnel apparatus was a 60×30×30 cm glass case open at each end and the floor was lined with wet blue roll in order to maintain humidity. A 30×30×30 cm cage, covered in untreated netting, was placed at the release end. The test nets were cut to 25×25 cm squares and fitted into cardboard frames that allow a 20×20 cm area to be exposed. Nine holes, 1 cm in diameter, were made in the netting in the pattern specified in the WHOPES test. The frames were then fitted into the tunnel one third of the way down its length. A Hemotek device, filled with blood and kept constant at 37° C. to mimic a human host, was placed in the smaller area of the glass tunnel behind the test netting, and the end of the tunnel closed with a netting screen. A human sat at the Hemotek end of the tunnels for the duration of the test. At the start of the test, 100 female mosquitoes (non-blood fed, aged 5-8 days) were introduced into the cage. Mosquitoes are free to fly in the tunnel but have to make contact with the piece of netting and locate the holes in it before passing through to reach the bait.
(§5) After 7 hours the mosquitoes were counted in each section of the tunnel. The number of mosquitoes knocked down and blood fed were recorded. Blood-feeding inhibition was assessed by comparing the proportion of blood-fed females (alive or dead) in treated and control tests. Four tunnels were run simultaneously each day, with one control containing untreated netting included with all runs. Three replicates were carried out per treatment. In case of multiple tests, the mean value is reported.

[3] = system: Anopheles gambiae, resistant strain AKRON; test: WHOPES tunnel test with Hemotek membrane feeding device (B15); conditions: Table B15
Experimental: as §2, §3
For example B15, the tunnel test was conducted with Anopheles gambiae, resistant strain AKRON.
(§6) The commercial standard Olyset nets used in certain examples are 2% w/w permethrin (approx. 1000 mg/m2, although not all of that is available on the surface at any one time, as a good proportion is in the polymer).
All tests were done under standardised laboratory controlled conditions (27° C.+2° C. under subdued light). The tunnel apparatus was a 60×30×30 cm glass case open at each end and the floor was lined with wet blue roll in order to maintain humidity. A 30×30×30 cm cage, covered in untreated netting, was placed at the release end. The test nets were cut to 25×25 cm squares and fitted into cardboard frames that allow a 20×20 cm area to be exposed. […]
After 7 hours the mosquitoes were counted in each section of the tunnel. The number of mosquitoes knocked down and blood fed were recorded. Blood-feeding inhibition was assessed by comparing the proportion of blood-fed females (alive or dead) in treated and control tests. […]

Anopheles gambiae Kisumu [4] = test: WHOPES tunnel test with live guinea pig baits, Burkina Faso (B16); conditions: Table B16; for Blood fed: number of mosquitoes
Experimental: as §2
(§7) For examples B16-B20, the WHOPES tunnel test procedure was followed with live guniea pig baits wherein B16-B18 were conduced in Burkina Faso with Anopheles gambiae Kisumu, Anopheles coluzzii VK7 lab strain and Anopheles gambiae s.l. VK field strain, respectively; and B19-B20 were conducted in Cote d′Ivoire with Anopheles gambiae Kisumu and Anopheles gambiae Tiassale field strain, respectively.
as §6, §4, §5

[5] = system: Anopheles coluzzii VK7 lab strain; test: WHOPES tunnel test with live guinea pig baits, Burkina Faso (B17); conditions: Table B17; for Blood fed: number of mosquitoes
Experimental: as §2, §7, §6, §4, §5

[6] = system: Anopheles gambiae s.l. VK field strain; test: WHOPES tunnel test with live guinea pig baits, Burkina Faso (B18); conditions: Table B18; for Blood fed: number of mosquitoes
Experimental: as §2, §7, §6, §4, §5

Anopheles gambiae Kisumu [7] = test: WHOPES tunnel test with live guinea pig baits, Cote d′Ivoire (B19); conditions: Table B19; for Blood fed: number of mosquitoes
Experimental: as §2, §7, §6, §4, §5

[8] = system: Anopheles gambiae Tiassale field strain; test: WHOPES tunnel test with live guinea pig baits, Cote d′Ivoire (B20); conditions: Table B20; for Blood fed: number of mosquitoes
Experimental: as §2, §7, §6, §4, §5

[9] = system: non-blood fed adult female mosquitoes; test: Bottle assay based on the CDC bottle assay (B21, B22); conditions: Table B21; rate not given
Experimental: Based on the “CDC bottle assay” (described at http://www.cdc.gov/malaria/resources/pdf/fsp/ir_manual/ir_cdc_bioassay_en.pdf) 1 ml of ethanol containing a test compound at a defined concentration was added to a 250 ml glass bottle and the bottles were placed on a rolling table to coat the inner surfaces as the solvent evaporated. Once dry, twenty five non-blood fed adult female mosquitoes of the appropriate species and strains (each three day old) were aspirated from the stock culture and gently blown into the exposure bottles. The lid of the bottle was replaced and the bottle placed upright out of direct sun light under standard culture conditions, nominally 28° C. and 60-80% relative humidity.
A stopwatch was started, and the assessment of the knock-down were made after 15 mins and 60 minutes. A mosquito was said to be knocked down if it was unable to stand, following the CDC definition. The bottles were replaced in an upright position when not being assessed.
After one hour the mosquitoes were carefully removed from the bottle with an aspirator and placed in a recovery cup. The mosquitoes were supplied with a 10% sucrose solution on a cotton wool bung, and stored under culture conditions. Assessments of the mortality were made after 24 hours and 48 hours (B21).
Each treatment was replicated a minimum of four times, with the mean knockdown or mortality recorded. In each study, a set of bottles was infested with a known insecticide susceptible strain of mosquitoes from the same genera as the resistant strains.

Anopheles stephensi [10] = test: six well tissue culture plate deposit test, knockdown and mortality (Examples B1-B10); conditions: for 24 hr mort / 48 hr mort / KD: Table B4, alone or +Comp. (1.3); for KD: knockdown after 1 hour; for knockdown after 1 hour: Alone or Plus Compound (1.3)
Experimental: The individual wells of six (6) well tissue culture plates were treated with 250 μl of an ethanol solution containing a test compound at a defined concentration. Once the deposits were dry, ten non-blood fed adult female Anopheles stephensi (between two to five day old) were added to each well, and sustained with a 10% sucrose solution in a cotton wool plug. Assessment of the knockdown after 1 hour (Tables B1-B10), and mortality after 24 and 48 hours (Tables B1-B4) was carried out.
In case of multiple tests, the mean value is reported.

[11] = Table B12, Deltamethrin 5 mg/m2

Question: `FC(F)(F)c1ccncc1-c1noc(-c2cccc(Cl)c2)n1` [Compound 1.1] was tested. Which pest or weed control at 0.2 ppm (Aedes aegypti; Rate 0.2 PPM) did it give?
Answer: The pest or weed control at 0.2 ppm was 100%.

Question: What about the pest or weed control at 2 ppm (Aedes aegypti; Rate 2 PPM) of the same compound?
Answer: Its pest or weed control at 2 ppm is 100%.

Question: What about the pest or weed control at 20 ppm (Aedes aegypti; Rate 20 PPM) of the same compound?
Answer: The pest or weed control at 20 ppm was 100%.

Question: And the pest or weed control at 200 ppm (Aedes aegypti; Rate 200 PPM)?
Answer: Its pest or weed control at 200 ppm is 100%.

Question: What about the pest or weed control at 0.2 ppm (Anopheles stephensi [1]; Rate 0.2 PPM) of the same compound?
Answer: Its pest or weed control at 0.2 ppm is 40%.

Question: And the pest or weed control at 2 ppm (Anopheles stephensi [1]; Rate 2 PPM)?
Answer: Its pest or weed control at 2 ppm is 100%.

Question: And the pest or weed control at 20 ppm (Anopheles stephensi [1]; Rate 20 PPM)?
Answer: The pest or weed control at 20 ppm was 100%.

Question: What about the pest or weed control at 200 ppm (Anopheles stephensi [1]; Rate 200 PPM) of the same compound?
Answer: Its pest or weed control at 200 ppm is 100%.

Question: What does the source list for `NC(=O)c1cnccc1C(F)(F)F` [Compound 1.3]?
Answer: % Blood fed (Anopheles stephensi [2]; Table B11, treated net, Rate 10 mg/m2): 3%; % Blood fed ([3]; Compound (1.3) 25 mg/m2): 0.3%; % Blood fed (Anopheles gambiae Kisumu [4]; 50 mg/m2): 1.5%; % Blood fed (Anopheles gambiae Kisumu [4]; 200 mg/m2): 0.3%; Blood fed (Anopheles gambiae Kisumu [4]; 50 mg/m2): 5; Blood fed (Anopheles gambiae Kisumu [4]; 200 mg/m2): 1; % Blood fed ([5]; 50 mg/m2): 3.3%; % Blood fed ([5]; 200 mg/m2): 1.5%; Blood fed ([5]; 50 mg/m2): 10; Blood fed ([5]; 200 mg/m2): 6; % Blood fed ([6]; 50 mg/m2): 1.3%; % Blood fed ([6]; 200 mg/m2): 1.8%; Blood fed ([6]; 50 mg/m2): 4; Blood fed ([6]; 200 mg/m2): 6; % Blood fed (Anopheles gambiae Kisumu [7]; 50 mg/m2): 25.0%; % Blood fed (Anopheles gambiae Kisumu [7]; 200 mg/m2): 23.1%; Blood fed (Anopheles gambiae Kisumu [7]; 50 mg/m2): 70; Blood fed (Anopheles gambiae Kisumu [7]; 200 mg/m2): 74; % Blood fed ([8]; 50 mg/m2): 24.5%; % Blood fed ([8]; 200 mg/m2): 3.3%; Blood fed ([8]; 50 mg/m2): 66; Blood fed ([8]; 200 mg/m2): 10

Question: How did the “% 1 hour KD” value (Anopheles stephensi [2]; [11]) turn out when `CC1(C)[C@H](C(=O)O[C@H](C#N)c2cccc(Oc3ccccc3)c2)[C@@H]1C=C(Br)Br` [Deltamethrin] was run?
Answer: The value was 0%.

Question: And the “% Blood fed” value (Anopheles stephensi [2]; [11])?
Answer: Its value is 0%.

Question: Which “24 hour % mort” value [9] does the source give for `N#CCNC(=O)c1cnccc1C(F)(F)F` [Flonicamid] here?
Answer: Its value is 0%.

Question: And the “48 hour % mort” value [9]?
Answer: The value was 0%.

Question: And the “% 1 hour KD” value [9]?
Answer: The value was 0%.

Question: For `COC(=O)N(C(=O)N1CO[C@@]2(C(=O)OC)Cc3cc(Cl)ccc3C2=N1)c1ccc(OC(F)(F)F)cc1` [Indoxacarb], which 24 hr mort (Anopheles stephensi [10]; Rate 12.5 ppm) is on record?
Answer: The 24 hr mort was 0.0.

Question: And the 48 hr mort (Anopheles stephensi [10]; Rate 12.5 ppm)?
Answer: The 48 hr mort was 0.0.

Question: And the 24 hr mort (Anopheles stephensi [10]; Rate 25 ppm)?
Answer: Its 24 hr mort is 0.0.

Question: What about the 48 hr mort (Anopheles stephensi [10]; Rate 25 ppm) of the same compound?
Answer: The 48 hr mort was 0.0.

Question: What about the 24 hr mort (Anopheles stephensi [10]; Rate 50 ppm) of the same compound?
Answer: The 24 hr mort was 0.0.

Question: What about the 48 hr mort (Anopheles stephensi [10]; Rate 50 ppm) of the same compound?
Answer: The 48 hr mort was 0.0.

Question: What about the 24 hr mort (Anopheles stephensi [10]; Rate 100 ppm) of the same compound?
Answer: Its 24 hr mort is 0.0.

Question: What about the 48 hr mort (Anopheles stephensi [10]; Rate 100 ppm) of the same compound?
Answer: Its 48 hr mort is 0.0.

Question: And the KD (Anopheles stephensi [10]; Rate 12.5 ppm)?
Answer: The KD was 0.0.

Question: And the KD (Anopheles stephensi [10]; Rate 25 ppm)?
Answer: Its KD is 0.0.

Question: What about the KD (Anopheles stephensi [10]; Rate 50 ppm) of the same compound?
Answer: Its KD is 0.0.

Question: What about the KD (Anopheles stephensi [10]; Rate 100 ppm) of the same compound?
Answer: The KD was 0.0.

Question: What about the “knockdown after 1 hour” value (Anopheles stephensi [10]; Table B7, Rate 25 ppm) of the same compound?
Answer: The value was 0.

Question: And the “knockdown after 1 hour” value (Anopheles stephensi [10]; Table B7, Rate 50 ppm)?
Answer: Its value is 0.

Question: What about the “knockdown after 1 hour” value (Anopheles stephensi [10]; Table B7, Rate 100 ppm) of the same compound?
Answer: Its value is 0.

Question: And the “knockdown after 1 hour” value (Anopheles stephensi [10]; Table B7, Rate 200 ppm)?
Answer: Its value is 0.

Question: What about the “% 24 hour mortality” value (Anopheles stephensi [2]; Table B14, Indoxacarb 20 mg/m2) of the same compound?
Answer: Its value is 7.6%.

Question: What about the “% Blood fed” value ([3]; Indoxacarb 200 mg/m2) of the same compound?
Answer: The value was 4.4%.

Question: `CCN(CC)c1nc(C)cc(OP(=S)(OC)OC)n1` [pirimiphos-methyl] was tested. Which “knockdown after 1 hour” value (Anopheles stephensi [10]; Table B10, Rate 0.0625 ppm) did it give?
Answer: The value was 0.0.

Question: What about the “knockdown after 1 hour” value (Anopheles stephensi [10]; Table B10, Rate 0.125 ppm) of the same compound?
Answer: Its value is 0.0.

Source: patent publication US20260191200A1, “COMPOUNDS AND COMPOSITIONS HAVING KNOCK-DOWN OR BLOOD FEED INHIBITION ACTIVITY AGAINST INSECT PESTS” (priority 2015, published 2026)
